Results published in US4444786A, “Carbamate derivatives, insecticidal, miticidal or nematocidal compositions containing the same, and process for preparing the same” (priority 1981, dated 1984).

Assays:
[1] = test system: green rice leafhopper (Nephotettix cincticeps); assay: Test Example 2: mortality of female adults of green rice leafhopper on paddy rice, three days; type: in vivo; settings: 72 h, 3 days; for mortality at 200 ppm: 200 ppm active ingredient; for mortality at 400 ppm: 400 ppm active ingredient; for mortality at 800 ppm: 800 ppm active ingredient
Description: An emulsion of specified concentration was prepared from a 50% wettable powder of the compound to be tested and applied to the leaves of paddy rice (one-month-old seedlings) planted in a pot to fully wet the leaves. After air-drying the emulsion, the pot was covered with a net cage, into which 10 female adults of green rice leafhopper (Nephotettix cincticeps) were released. The compound of each specified concentration was tested on two pots.

noxious insects = settings: known, background; cited from earlier work
[2] = test system: tobacco cutworm (Spodoptera litura); assay: Test Example 1: mortality of third-instar larvae of tobacco cutworm on cabbage, three days; type: in vivo; settings: 72 h, 3 days; for mortality at 100 ppm: 100 ppm active ingredient; for mortality at 200 ppm: 200 ppm active ingredient; for mortality at 400 ppm: 400 ppm active ingredient
Description: Ten third-instar larvae of tobacco cutworm (Spodoptera litura) were placed on a cabbage (one-month-old seedlings) planted in a pot, and a 50% emulsion of the compound to be tested was diluted to a specified concentration and applied to the leaves of the plant to fully wet them. The test compound of each specified concentration was tested on two pots.

[3] = test system: house fly (Musca domestica); assay: Test Example 4: local application to house fly, LD50 by Probit method; type: in vivo; settings: topical, 24 hours
Description: The compound to be tested was dissolved in a predetermined amount of acetone. The solution was diluted to various concentrations and locally applied to house fly (Musca domestica).

warm-blooded animals = settings: known, background; cited from earlier work
[4] = Test Example 5: acute toxicity by oral administration against male mice; settings: mouse, in vivo, seventh day, Litchfield-Wilcoxon method
Description: The compound to be tested was evaluated in terms of acute toxicity by oral administration against male mice.

[5] = test system: southern root-knot nematode (Meloidogyne incognita); assay: Test Example 3: formation of nodules on tomato roots in soil contaminated with nematode larvae, one month; type: in vivo
From the text: Granules containing 10% of the compound to be tested were mixed, in a specified amount, with soil contaminated with larvae of southern root-knot nematode (Meloidogyne incognita), and tomato seedlings were immediately transplanted in the soil. One month later, the roots of the plant were checked for the formation of nodules. Two test areas, 2×2 m^2 each, were used for the compound as applied in each specified amount.

| Molecule | mortality at 200 ppm [1] | mortality at 400 ppm [1] | mortality at 800 ppm [1] | insecticidal activity (noxious insects) | mortality at 100 ppm [2] | LD50 [3] | toxicity to warm-blooded animals (warm-blooded animals) | LD50 at 168 h [4] | mortality at 200 ppm [2] | mortality at 400 ppm [2] | Degree of Formation of Nodules ([5]; granules (10%) applied at 10 kg/10 a) | Degree of Formation of Nodules ([5]; granules (10%) applied at 25 kg/10 a) | Degree of Formation of Nodules ([5]; granules (10%) applied at 50 kg/10 a) |
| --- | --- | --- | --- | --- | --- | --- | --- | --- | --- | --- | --- | --- | --- |
| CNC(=O)ON=C(C)SC [Control*, S-methyl N-[(methylcarbamoyl)oxy]thioacetamidate, reference compound] | 90% | 100% | 100% | high insecticidal activity | 80% | 6.8 mg/kg | high toxicity to warm-blooded animals | 16 mg/kg |  |  |  |  |  |
| CCOC(=O)CCN(SN(C)C(=O)ON=C(C)SC)C(C)C [Example 1, S-methyl N-[{N-methyl-N-(N-isopropyl-N-ethoxycarbonylethylaminosulfenyl)carbamoyl}oxy]thioacetamidate] | 60% | 80% | 100% |  | 85% | 16 mg/kg |  | 150 mg/kg | 90% | 100% |  |  |  |
| CCOC(=O)CCN(CCC(=O)OCC)SN(C)C(=O)ON=C(C)SC [Example 2, S-methyl N-[{N-methyl-N-(N,N-bis(ethoxycarbonylethyl)aminosulfenyl)carbamoyl}oxy]thioacetamidate] | 60% | 95% | 100% |  | 75% | 23 mg/kg |  | 300 mg/kg | 100% | 100% |  |  |  |
| CCCCN(CC(=O)OCC)SN(C)C(=O)ON=C(C)SC [Example 3] | 80% | 100% | 100% |  | 100% | 8.5 mg/kg |  | 170 mg/kg | 100% | 100% |  |  |  |
| CCCN(CCC(=O)OCC)SN(C)C(=O)ON=C(C)SC [Example 4] | 95% | 100% | 100% |  | 100% | 11 mg/kg |  | 150 mg/kg | 100% | 100% |  |  |  |
| CCCCN(CCC(=O)OC)SN(C)C(=O)ON=C(C)SC [Example 5] | 95% | 100% | 100% |  | 100% | 5 mg/kg |  | 150 mg/kg | 100% | 100% |  |  |  |
| CCOC(=O)CCN(CC(C)C)SN(C)C(=O)ON=C(C)SC [Example 6] | 80% | 90% | 100% |  | 70% | 7.6 mg/kg |  | 170 mg/kg | 95% | 100% |  |  |  |
| CCOC(=O)CCN(SN(C)C(=O)ON=C(C)SC)C1CCCCC1 [Example 7] | 65% | 100% | 100% |  | 95% | 18.3 mg/kg |  | 200 mg/kg | 100% | 100% |  |  |  |
| CCOC(=O)CCN(Cc1ccccc1)SN(C)C(=O)ON=C(C)SC [Example 8] | 75% | 100% | 100% |  | 100% | 35.2 mg/kg |  | 250 mg/kg | 100% | 100% |  |  |  |
| CCOC(=O)CCN(SN(C)C(=O)ON=C(C)SC)c1ccc(Cl)cc1 [Example 9] | 70% | 100% | 100% |  | 50% | 14 mg/kg |  | 250 mg/kg | 70% | 100% |  |  |  |
| CCOC(=O)CCN(SN(C)C(=O)ON=C(C)SC)c1cccc(C)c1 [Example 10] | 90% | 100% | 100% |  | 60% | 29.5 mg/kg |  | 250 mg/kg | 85% | 100% |  |  |  |
| CCOC(=O)CN(CC(=O)OCC)SN(C)C(=O)ON=C(C)SC [Example 11] | 60% | 80% | 100% |  | 45% | 47.3 mg/kg |  | 300 mg/kg | 75% | 100% |  |  |  |
| CCOC(=O)CN(SN(C)C(=O)ON=C(C)SC)C(=O)OCC [Example 12] | 80% | 100% | 100% |  | 100% | 28.7 mg/kg |  | 200 mg/kg | 100% | 100% |  |  |  |
| CCOC(=O)CN(SN(C)C(=O)ON=C(C)SC)C(=O)CC [Example 13] | 75% | 100% | 100% |  | 75% | 14.4 mg/kg |  | 200 mg/kg | 90% | 100% |  |  |  |
| CCOC(=O)CN(SN(C)C(=O)ON=C(C)SC)S(=O)(=O)c1ccc(C)cc1 [Example 14] | 80% | 100% | 100% |  | 60% | 33.3 mg/kg |  | 250 mg/kg | 80% | 100% |  |  |  |
| CCCCOC(=O)CCN(SN(C)C(=O)ON=C(C)SC)C(C)C [Example 15] | 80% | 100% | 100% |  | 75% | 21.3 mg/kg |  | 280 mg/kg | 95% | 100% |  |  |  |
| CCCCCCN(CCC(=O)OCC)SN(C)C(=O)ON=C(C)SC [Example 16] | 75% | 100% | 100% |  | 70% | 32.5 mg/kg |  | 300 mg/kg | 80% | 100% |  |  |  |
| CCCCC(CC)COC(=O)CCN(SN(C)C(=O)ON=C(C)SC)C(C)C (stereo not drawn) [Example 17] | 75% | 90% | 100% |  | 50% | 42.4 mg/kg |  | 300 mg/kg | 70% | 100% |  |  |  |
| CCCCCCCCN(CCC(=O)OCC)SN(C)C(=O)ON=C(C)SC [Example 18] | 75% | 90% | 100% |  | 60% | 35.6 mg/kg |  | 270 mg/kg | 75% | 100% |  |  |  |
| CCOC(=O)CCN(SN(C)C(=O)ON=C(C)SC)c1ccc(OC)cc1 [Example 19] | 80% | 100% | 100% |  | 75% | 20.1 mg/kg |  | 250 mg/kg | 80% | 100% |  |  |  |
| CCOC(=O)CCN(Cc1ccc(Cl)cc1)SN(C)C(=O)ON=C(C)SC [Example 20] | 80% | 100% | 100% |  | 75% | 18.9 mg/kg |  | 250 mg/kg | 80% | 100% |  |  |  |
| Bis(2-chloro-1-methylethyl)ethane |  |  |  |  |  |  |  |  |  |  | 4 (75 to 100%) | 4 (75 to 100%) | 2 (25 to 49%) |
